Read-outs that look alike come from different tables or passages of the source. A value given as a limit tells only on which side of the number the result lay.

The IC50 is the midpoint of a concentration-inhibition curve.

The subject of assay [1] is PKMYT1 (CDK1 pThr14) in FUOV1 cells. In words: PKMYT1 cell-based activity assay, CDK1 pThr14 AlphaLISA in FUOV1 cells. To be noted: read-out: FUOV-1 CDK1 pThr14 IC50. The gist of the method:
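FUOV1 cells were treated with PKMYT1 inhibitor for 2 h at 37 °C, then lysed. CDK1 pThr14 was measured by AlphaLISA, pairing an anti-pThr14 antibody with an anti-total CDK1 antibody (5 nM each). Signal read at 680/615 nm and used to derive IC50.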

In assay [2] the target is recombinant human Myt1 (full length PKMYT1) (Homo sapiens (Human), UniProt Q99640). In words: Recombinant human Myt1 kinase assay (ADP-Glo). The assay is classed as biochemical. To be noted: 10 μM ATP. The method, boiled down: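 Full-length insect-cell-expressed human Myt1 (18 nM final) was preincubated with compound (0.5% DMSO) for 15 min at 22 °C. The reaction ran with 10 μM ATP for 60 min at 30 °C in HEPES buffer with Mg2+/Mn2+ and DTT. ADP formed was read by ADP-Glo luminescence, giving IC50 and % max inhibition.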
recombinant human Myt1 (full length PKMYT1), sequence (Q99640 whole entry): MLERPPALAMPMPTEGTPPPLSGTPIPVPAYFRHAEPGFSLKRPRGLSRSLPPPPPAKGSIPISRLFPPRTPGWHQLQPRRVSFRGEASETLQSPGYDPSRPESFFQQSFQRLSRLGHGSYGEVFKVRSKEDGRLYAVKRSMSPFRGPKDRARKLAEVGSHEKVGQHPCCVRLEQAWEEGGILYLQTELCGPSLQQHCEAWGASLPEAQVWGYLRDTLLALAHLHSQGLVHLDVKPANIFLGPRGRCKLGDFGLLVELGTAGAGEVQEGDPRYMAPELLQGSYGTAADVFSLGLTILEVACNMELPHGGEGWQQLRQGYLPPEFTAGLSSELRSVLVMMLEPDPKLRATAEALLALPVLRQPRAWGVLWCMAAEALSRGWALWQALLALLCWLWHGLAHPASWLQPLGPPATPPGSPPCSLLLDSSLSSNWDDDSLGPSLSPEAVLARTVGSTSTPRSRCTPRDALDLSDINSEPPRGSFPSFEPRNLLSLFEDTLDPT

With `Cc1ccc2[nH]ncc2c1-c1cc(-c2csc(OC3COC3)n2)nc(C(N)=O)c1N` [Compound 224], the IC50 came to 252 nM in assay [1] (2 h, 2 h incubation) and 40 nM in assay [2].

For `Cc1ccc2[nH]ncc2c1-c1cc(-c2cccc(OC3(c4ncccn4)COC3)n2)nc(C(N)=O)c1N` [Compound 256], the IC50 in assay [1] (2 h, 2 h incubation) was 132 nM; in assay [2] it was 21 nM.

Regarding `Cc1ccc2[nH]ncc2c1-c1nc(Nc2ncccc2-c2ccncn2)nc(C(N)=O)c1N` [Compound 818, 5-amino-6-(5-methyl-1H-indazol-4-yl)-2-((3-(pyrimidin-4-yl)pyridin-2-yl)amino)pyrimidine-4-carboxamide], the IC50 was greater than 10000 nM in assay [1] (2 h, 2 hours with compound) and 3880 nM in assay [2].

Regarding `Cc1ccc2[nH]ncc2c1-c1nc(-c2ccc(F)cc2Nc2cc(C#N)ccn2)nc(C(N)=O)c1N` [Compound 612], the IC50 came to 214 nM in assay [1] (2 h, 2 h compound incubation) and 12 nM in assay [2].

For `Cc1ccc(O)c(C)c1-c1cc(-c2ccns2)cc(C(N)=O)c1N` [Compound 92], the IC50 in assay [1] (2 h, 2 h incubation) is 131 nM; in assay [2] it was 5 nM.

As for `Cc1ccncc1Nc1ncccc1-c1nc(C(N)=O)c(N)c(-c2c(C)ccc3[nH]ncc23)n1` [Compound 599], the IC50 in assay [1] (2 h, 2 h compound incubation) was 630 nM; in assay [2], 363 nM.

As for `Cc1ccc2[nH]ncc2c1-c1nc(-c2ccccc2NC(=O)[C@@]2(C)CCCN2)nc(C(N)=O)c1N` [Compound 431], the IC50 in assay [1] (2 h, 2 h compound incubation) was found to be 5 nM; in assay [2], 8 nM.

With `Cc1ccc2[nH]ncc2c1-c1nc(-c2ccccc2S(=O)(=O)NC(C)(C)C)nc(C(N)=O)c1N` [Compound 792], the IC50 is greater than 10000 nM in assay [1] (2 h, 2 h compound incubation) and 10100 nM in assay [2].

Consider `CCC(COC)Oc1nccc(-c2cc(-c3c(C)ccc4[nH]ncc34)c(N)c(C(N)=O)n2)n1` (centres unmarked) [Compound 221], for which the IC50 was 270 nM in assay [1] (2 h, 2 h incubation) and 7 nM in assay [2].

In the case of `Cc1ccc2[nH]ncc2c1-c1nc(-c2cccnc2Nc2cscn2)nc(C(N)=O)c1N` [Compound 894], the IC50 in assay [1] (2 h, 2 hours with compound) is 447 nM; in assay [2] it was 17 nM.

Turning to `Cc1ccc2[nH]ncc2c1-c1cc(-c2cccc(O[C@@H]3CCOC3)n2)nc(C(N)=O)c1N` (atropisomer, axis not shown) [Compound 227, (R)-5-amino-4-(5-methyl-1H-indazol-4-yl)-6′-(((R)-tetrahydrofuran-3-yl)oxy)-[2,2′-bipyridine]-6-carboxamide], the IC50 in assay [1] (2 h, 2 h incubation) is 198 nM; in assay [2], 2 nM.

Take `Cc1ccc2[nH]ncc2c1-c1nc(-c2ccccc2NCC(F)(F)F)nc(C(N)=O)c1N` [Compound 409]: the IC50 is 28 nM in assay [1] (2 h, 2 h compound incubation) and 5 nM in assay [2].

In the case of `Cc1ccc2[nH]ncc2c1-c1cc(-c2ccccn2)nc(C(N)=O)c1N` [Compound 87], the IC50 in assay [1] (2 h, 2 h incubation) was 567 nM; in assay [2] it was 11 nM.

Take `CCOC(=O)Nc1ccccc1-c1nc(C(N)=O)c(N)c(-c2c(C)ccc3[nH]ncc23)n1` [Compound 473]: the IC50 in assay [1] (2 h, 2 h compound incubation) was 48 nM; in assay [2] it was 8 nM.

For `Cc1ccc2[nH]ncc2c1-c1nc(-c2ccccc2NC(=O)C2(F)CC2)nc(C(N)=O)c1N` [Compound 461], the IC50 in assay [1] (2 h, 2 h compound incubation) was 6 nM; in assay [2], 3 nM.

Turning to `COCCOc1nccc(-c2cc(-c3c(C)ccc4[nH]ncc34)c(N)c(C(N)=O)n2)n1` [Compound 166], the IC50 was determined as 109 nM in assay [1] (2 h, 2 h incubation) and 3 nM in assay [2].

Take `Cc1ccc2[nH]ncc2c1-c1cc(-c2cccc(N[C@H]3C[C@H](O)C3)n2)nc(C(N)=O)c1N` [Compound 322]: the IC50 was 164 nM in assay [1] (2 h, 2 h incubation) and 10 nM in assay [2].

For the molecule `Cc1ccc2[nH]ncc2c1-c1nc(-c2ccccc2NC(=O)C2CC(F)(F)C2)nc(C(N)=O)c1N` [Compound 415], the IC50 in assay [1] (2 h, 2 h compound incubation) stood at 210 nM; in assay [2], 8 nM.

As to `Cc1ccc2[nH]ncc2c1-c1nc(-c2ccccc2NC2CCC(F)(F)CC2)nc(C(N)=O)c1N` [Compound 453], the IC50 in assay [1] (2 h, 2 h compound incubation) came to 317 nM; in assay [2], 12 nM.

Take `COCCNc1ccccc1-c1nc(C(N)=O)c(N)c(-c2c(C)ccc3[nH]ncc23)n1` [Compound 464]: the IC50 in assay [1] (2 h, 2 h compound incubation) is 370 nM; in assay [2] it was 3 nM.

Consider `Cc1ccc2[nH]ncc2c1-c1nc(-c2ccccc2NC(=O)C2(C(F)(F)F)CC2)nc(C(N)=O)c1N` [Compound 405], for which the IC50 in assay [1] (2 h, 2 h compound incubation) amounted to 93 nM; in assay [2], 4 nM.

For the molecule `Cc1ccc2[nH]ncc2c1-c1nc(-c2ccc(C(=O)O)cc2)nc(C(N)=O)c1N` [Compound 146], the IC50 in assay [1] (2 h, 2 h incubation) is greater than 10000 nM; in assay [2], 23 nM.

Turning to `Cc1ccc2[nH]ncc2c1-c1nc(-c2ccccc2NCC2(C)CC2)nc(C(N)=O)c1N` [Compound 452], the IC50 in assay [1] (2 h, 2 h compound incubation) amounted to 124 nM; in assay [2], 16 nM.

As for `NC(=O)c1nc(-c2cc(F)c(F)cc2NCC(F)F)nc(-c2c(Cl)ccc3[nH]ncc23)c1N` [Compound 468], the IC50 stood at 228 nM in assay [1] (2 h, 2 h compound incubation) and 6 nM in assay [2].

Turning to `CNc1ccccc1-c1nc(C(N)=O)c(N)c(-c2c(C)ccc3[nH]ncc23)n1` [Compound 365], the IC50 worked out at 774 nM in assay [1] (2 h, 2 h incubation) and 28 nM in assay [2].

For the molecule `Cc1ccc2[nH]ncc2c1-c1nc(-c2cc(Cl)ccc2NC(=O)C2(C)CC2)nc(C(N)=O)c1N` [Compound 439], the IC50 in assay [1] (2 h, 2 h compound incubation) came to 42 nM; in assay [2] it was 6 nM.

As for `Cc1ccc2[nH]ncc2c1-c1cc(-c2ccnc(OCCc3ccccn3)n2)nc(C(N)=O)c1N` [Compound 239], the IC50 in assay [1] (2 h, 2 h incubation) came out at 903 nM; in assay [2], 4 nM.

With `Cc1ccc2[nH]ncc2c1-c1nc(-c2cccnc2NCC(F)F)nc(C(N)=O)c1N` [Compound 625], the IC50 in assay [1] (2 h, 2 h compound incubation) was 42 nM; in assay [2], 5 nM.

`Cc1ccc2[nH]ncc2c1-c1nc(-c2ccccc2NC(=O)C2CC2)nc(C(N)=O)c1N` [Compound 397]: the IC50 came out at 13 nM in assay [1] (2 h, 2 h compound incubation) and 4 nM in assay [2].

Take `Cc1ccc(-c2cc(-c3c(C)ccc(O)c3C)c(N)c(C(N)=O)n2)nc1` [Compound 40]: the IC50 in assay [1] (2 h, 2 h incubation) worked out at 208 nM; in assay [2], 4 nM.

`Cc1ccc(O)c(C)c1-c1cc(-c2ccco2)nc(C(N)=O)c1N` [Compound 50]: the IC50 in assay [1] (2 h, 2 h incubation) was determined as 368 nM; in assay [2], 6 nM.

As for `COc1ccc(-c2cc(-c3c(C)ccc(O)c3C)c(N)c(C(N)=O)n2)nc1` [Compound 61], the IC50 in assay [1] (2 h incubation) was determined as 68 nM; in assay [2], 2 nM.

For `CC(=O)Nc1ccccc1-c1nc(C(N)=O)c(N)c(-c2c(C)ccc3[nH]ncc23)n1` [Compound 320], the IC50 in assay [1] (2 h, 2 h incubation) stood at 19 nM; in assay [2] it was 6 nM.

As for `Cc1ccc2[nH]ncc2c1-c1cc(-c2ccnc(OCC(F)(F)F)n2)nc(C(N)=O)c1N` [Compound 159], the IC50 was found to be 268 nM in assay [1] (2 h incubation) and 6 nM in assay [2].

`Cc1ccc2[nH]ncc2c1-c1nc(-c2cccnc2Nc2cccc(C(N)=O)c2)nc(C(N)=O)c1N` [Compound 609]: the half-maximal inhibitory concentration (IC50) worked out at 414 nM in assay [1] (2 h, 2 h compound incubation) and 4 nM in assay [2].

As to `Cc1ccc(O)c(C)c1-c1cc(-c2ccns2)nc(C(N)=O)c1N` [Compound 38], the IC50 in assay [1] (2 h, 2 h incubation) stood at 60 nM; in assay [2] it was 3 nM.

As for `Cc1ccc2[nH]ncc2c1-c1nc(-c2ccccc2Nc2ncccn2)nc(C(N)=O)c1N` [Compound 449, 5-amino-6-(5-methyl-1H-indazol-4-yl)-2-(2-(pyrimidin-2-ylamino)phenyl)pyrimidine-4-carboxamide], the IC50 turned out to be 23 nM in assay [1] (2 h, 2 h compound incubation) and 7 nM in assay [2].

As to `Cc1ccc2[nH]ncc2c1-c1cc(-c2cccc(OCc3nccs3)n2)nc(C(N)=O)c1N` [Compound 261], the IC50 in assay [1] (2 h, 2 h incubation) is 544 nM; in assay [2], 6 nM.

`CSc1nccc(-c2cc(-c3c(C)ccc4[nH]ncc34)c(N)c(C(N)=O)n2)n1` [Compound 167]: the IC50 in assay [1] (2 h, 2 h incubation) came to 414 nM; in assay [2] it was 8 nM.

As for `Cc1ccc2[nH]ncc2c1-c1cc(-c2ccnc(OCCc3ncc[nH]3)n2)nc(C(N)=O)c1N` [Compound 240], the IC50 in assay [1] (2 h, 2 h incubation) was found to be 996 nM; in assay [2] it was 8 nM.

For the molecule `COc1cccc(-c2cc(-c3c(C)ccc(O)c3C)c(N)c(C(N)=O)n2)n1` [Compound 62], the IC50 in assay [1] (2 h, 2 h incubation) stood at 117 nM; in assay [2], 8 nM.

As to `Cc1ccc(O)c(C)c1-c1cc(-c2c[nH]cn2)nc(C(N)=O)c1N` [Compound 43], the IC50 in assay [1] (2 h, 2 h incubation) amounted to 336 nM; in assay [2], 6 nM.

`CCCc1ccccc1-c1nc(C(N)=O)c(N)c(-c2c(C)ccc3[nH]ncc23)n1` [Compound 796]: the IC50 in assay [1] (2 h, 2 hours with compound) was 781 nM; in assay [2], 15 nM.

For the molecule `Cc1ccc(O)c(C)c1-c1cc(-c2ccnc(N)c2)nc(C(N)=O)c1N` [Compound 14], the IC50 in assay [1] (2 h incubation) amounted to 132 nM; in assay [2] it was 4 nM.

As for `CNS(=O)(=O)c1ccccc1-c1nc(C(N)=O)c(N)c(-c2c(C)ccc3[nH]ncc23)n1` [Compound 795], the IC50 in assay [1] (2 h, 2 hours with compound) is greater than 10000 nM; in assay [2], 2520 nM.

Regarding `Cc1ccc2[nH]ncc2c1-c1nc(-c2ccccc2NCC(F)(F)F)cc(C(N)=O)c1N` [Compound 413], the IC50 in assay [1] (2 h, 2 h compound incubation) was determined as 184 nM; in assay [2], 5 nM.

Regarding `Cc1ccc2[nH]ncc2c1-c1nc(-c2ccccc2NC(=O)C2(C)CC2)nc(C(N)=O)c1N` [Compound 401], the IC50 in assay [1] (2 h, 2 h compound incubation) was found to be 4 nM; in assay [2] it was 5 nM.

Consider `Cc1ccc2[nH]ncc2c1-c1cc(-c2ccnc(OCc3ncccn3)n2)nc(C(N)=O)c1N` [Compound 235], for which the IC50 in assay [1] (2 h, 2 h incubation) was determined as 39 nM; in assay [2], 7 nM.

In the case of `Cc1ccc2[nH]ncc2c1-c1cc(-c2ccc(-c3nccs3)nc2)nc(C(N)=O)c1N` [Compound 186], the IC50 in assay [1] (2 h, 2 h incubation) is 1690 nM; in assay [2], 47 nM.

The record behind these values is US20250304537A1 (Repare Therapeutics Inc., priority 2022, published 2025).
